# Test results as given in patent US20250034139A1, “AMINE COMPOUNDS HAVING ANTI-INFLAMMATORY, ANTIFUNGAL, ANTIPARASITIC, AND ANTICANCER ACTIVITY” (PHARMA CINQ, LLC, priority 2013, published 2025).
# pIC50: −log10 of the molar value. Marks after values point to notes of the source that are not given here.
# Legend:
# [1] = test system: PC-3 prostate cancer cells; assay: Example T: sensitisation of PC-3 cells to doxorubicin, oxaliplatin, paclitaxel or vincristine, Wst1; type: cell-based, human; details: PC-3 cells, 72 hours; for viability at 2.5 µM: compound 2.5 μM alone; for Doxorubicin 3.5 μM: percent cell survival / Oxaliplatin 100 μM: percent cell survival / Paclitaxel 50 μM: percent cell survival / Vincristine 100 nM: percent cell survival: chemotherapy agent alone normalized to 100%
# [2] = test system: 4T1 mouse mammary breast cancer cells; assay: Example O: syngeneic 4T1 breast cancer growth in Balb/C mice; type: in vivo; details: for Final Tumor Volume / Δ BW % / Final Body Weight / Initial Body Weight: 4T1 in female Balb/C mice; for Final Tumor Volume: 120 μmol/kg/day oral gavage, day 2 to day 30; for Δ BW % / Final Body Weight / Initial Body Weight: 120 μmol/kg/day oral; for Δ BW %: final vs initial body weight; for Final Body Weight: in g (unit assumed); for Initial Body Weight: initial (baseline)
# Protocol: Cancer models in mice generally either involve syngeneic murine tumors in immunocompetent mice or xenografts of human tumors in immunocompromised mice. […] Mice received test compounds by oral gavage in 1% hydroxypropylmethylcellulose from day 2 until day 30. Tumor growth was assessed by caliper measurements twice per week and tumor weight after necropsy, and body weight was also monitored. Treatment groups were: • 1. […] HPMC) • 2. CI (120 μmol/kg/day) • 3. BA (120 μmol/kg/day) • 4. CP (120 μmol/kg/day) • 5. CQ (120 μmol/kg/day) • 6. AA (120 μmol/kg/day) • 7. AC (120 μmol/kg/day)
# [3] = test system: PC3 human prostate cancer cells; assay: Example S: in vitro anticancer screen, PC-3 cells, Wst1; type: cell-based; details: Homo sapiens, PC-3, approximately 20 hours, Wst1, read-out: PC-3, percent of cancer cell survival relative to vehicle treated cells
# In short: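 PC-3 cells, 2×10^4 cells/well, exposed ~20 h to vehicle or compound at 0.4, 0.5 or 2.5 μM as specified per compound. Wst1 dye added for 2 h; absorbance 450 nm (reference 630 nm), triplicates. Values are percent cell survival versus vehicle-treated cells.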
# THP-1 cells = assay: Example D: LPS-triggered THP-1 cell death assay, acute/5-hour and chronic/48-hour; type: cell-based, Human; details: 10 ng/ml LPS, 0.1 μM test compound, 48 hours
# Protocol: Compounds of the invention were tested at 0.1 μM versus AC in the LPS-triggered THP-1 cell death assay. Both acute/5-hour and chronic/48-hour phases of cell death were assessed. Compounds were screened in batches with DMSO as the negative control and AC as the high activity control.
# [4] = test system: EAE induced by PLP139-151; assay: Example G: Experimental Autoimmune Encephalitis (EAE) mouse model of multiple sclerosis; type: in vivo; details: for EAE Score on Day 46: 60 μmol/kg by oral gavage from Day 14, score 0-5; for EAE Score on Day 14 (Before Treatment): baseline, score 0-5
# [5] = test system: 4T1 murine breast cancer cells; assay: Example S: in vitro anticancer screen, 4T1 cells, Wst1; type: cell-based, mouse; details: Mus musculus, 4T1, 18 h, 18 hr, Wst1; for viability at 1 µM: read-out: 4T1 1 μM, percent of cancer cell survival relative to vehicle treated cells; for viability at 5 µM: read-out: 4T1 5 μM, percent of cancer cell survival relative to vehicle treated cells
# In short: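 4T1 cells seeded at 1×10^4/well were exposed to compound at 1 μM or 5 μM for 18 hr after plating. Wst1 tetrazolium dye was then added for about 2 hr and absorbance read at 450 nm (reference 630 nm). Values are percent survival relative to vehicle-treated cells.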
# [6] = test system: HCT-116 colon adenocarcinoma cells; assay: Example Q: HCT-116 liver metastases of human colorectal cancer in nude mice; type: in vivo; details: 240 μmol/kg/day oral, 28 days
# Excerpt: A major cause of morbidity and mortality in patients with colorectal cancer is metastasis of the tumor into the liver; colorectal cancer can often be successfully resected from the primary site, but metastases to the liver are much less accessible to surgical treatment. A mouse model of colorectal cancer metastasis to the liver has been established, using HCT-116 colon adenocarcinoma cells injected into the spleen of athymic (nude) mice. The HCT-116 cancer cells spontaneously spread from the spleen into the liver via the circulation, and they form tumors in the liver (Ishizu, K., Sunose, N., Yamazaki, K., Tsuruo, T., Sadahiro, S., Makuuchi, H., and Yamori, T. Development and Characterization of a Model of Liver Metastasis Using Human Colon Cancer HCT-116. Biol. Pharm. Bull. 2007, 30(9):1779-1783).
# Mice (female Hsd:athymic nude-Foxn1^nu) were anesthetized with xylazine/ketamine intraperitoneal injection, followed by incision approximately 10 mm on the left subcostal region (area disinfected with ethanol) to expose the peritoneum. The peritoneum was opened for about 8 mm near the spleen, and 2.5×10^6 cells in 50 μL PBS were injected into the spleen using a 30G needle. The spleen was repositioned, and the surgical area was closed using sutures and clips.
# The day after receiving cells, mice were randomized into groups of five based upon body weight to provide groups with approximately equivalent mean body weight. Mice received a single, daily oral dose of test article or vehicle (1% hydroxypropylmethylcellulose) beginning 48 hours following cell injection into the spleen.
# At study termination 28 days after HCT-116 cell injection, body weights were recorded, and spleens and livers were removed, weighed and fixed in 10% formalin. Livers were sectioned and stained; the relative areas of normal and tumor tissue were quantified in histology sections with quantitative planimetry software.
# [7] = test system: Vit-D3 activated THP-1 cells; assay: Example B: Acridine Orange (A.O.) uptake, lysosomal acidification and integrity; type: cell-based, Human; details: 5 hours
# Protocol: In this experiment, cell viability was monitored and uptake and accumulation of acridine orange, a lysosomotropic fluorescent dye, was used to assess lysosomal acidification and integrity. JC-1 dye was used to measure effects of test compounds on mitochondrial membrane potential (MMP); reduction of MMP is a feature of apoptotic cell death. • 1. […] The tubes were washed twice in DPBS, resuspended in 500 μl DPBS and acquired on the FACSCalibur.
# [8] = test system: Cryptococcus neoformans (serotype D); assay: Example K: Cryptococcus neoformans (serotype D) growth inhibition; type: cell-based
# S. cerevisiae = assay: Example I: Saccharomyces cerevisiae growth inhibition (OD 600 nm); type: cell-based; details: tested 4 to 50 μM
# [9] = Homo sapiens, Wst1, vehicle = 100, read-out: No Chemo: percent cell survival
# [10] = compound 2.5 μM + doxorubicin 3.5 μM
# [11] = compound 2.5 μM + oxaliplatin 100 μM
# [12] = compound 2.5 μM + paclitaxel 50 μM
# [13] = compound 2.5 μM + vincristine 100 nM
# [14] = HCT-116 liver metastases, nude mice
smiles,measurement,setting,value
"CCCCCCOc1ccccc1OCCNc1ccnc2ccccc12 [CP, N-{2-[2-(Hexyloxy)phenoxy]ethyl}quinolin-4-amine]",viability at 2.5 µM,[1]; [9],35.6%
same,Doxorubicin 3.5 μM: percent cell survival,[1]; [10],72.4%
same,Oxaliplatin 100 μM: percent cell survival,[1]; [11],76.5%
same,Paclitaxel 50 μM: percent cell survival,[1]; [12],74.5%
same,Vincristine 100 nM: percent cell survival,[1]; [13],48.2%
same,Final Tumor Volume,[2],352 ± 114 mm^3
same,Δ BW %,[2],−0.0%
same,Final Body Weight,[2],24.1 ± 1.3
same,Initial Body Weight,[2],24.1 ± 0.9 g
same,viability at 2.5 µM,[3],35.6%
same,"Viable cell percent change, Chronic/48-hour, Mean",THP-1 cells,49.81%
same,EAE Score on Day 46,[4],1.86 ± 0.34
same,EAE Score on Day 14 (Before Treatment),[4],0.86 ± 0.14
same,viability at 1 µM,[5],82.6%
same,viability at 5 µM,[5],38%
"CCCCCCOc1ccccc1OCCCNc1ccnc2ccccc12 [CQ, N-{3-[2-(Hexyloxy)phenoxy]propyl}quinolin-4-amine]",viability at 2.5 µM,[1]; [9],95.8%
same,Doxorubicin 3.5 μM: percent cell survival,[1]; [10],86.5%
same,Oxaliplatin 100 μM: percent cell survival,[1]; [11],93.8%
same,Paclitaxel 50 μM: percent cell survival,[1]; [12],34.8%
same,Vincristine 100 nM: percent cell survival,[1]; [13],47.1%
same,Final Tumor Volume,[2],140 ± 60 mm^3
same,Δ BW %,[2],−2.0%
same,Final Body Weight,[2],24.4 ± 0.9
same,Initial Body Weight,[2],24.9 ± 0.6 g
same,"tumor growth versus vehicle-treated mice, in words","[2]; daily oral administration, 120 μM/kg/day as printed",most active of the compounds tested in this experiment
same,excess of the Vehicle group's liver weight/body weight ratio over the treated group,[6],12%
same,"area of liver invaded by metastatic cancer cells, in words",[6]; histology planimetry,markedly reduced the area of liver invaded by metastatic cancer cells
same,Final Body Weight Grams,[6]; [14],26.2 ± 0.9 NS Grams
same,Liver Weight % of Body Weight,[6]; [14],5.3 ± 0.1%
same,Tumor Area % of Vehicle Group,[6]; [14],0.15% *
same,Tumor Area % of Total Liver,"[6]; HCT-116 liver metastases, nude mice, histology planimetry",0.02 ± 0.01%
same,viability at 2.5 µM,[3],95.8%
same,viability at 1 µM,[5],71.9%
same,viability at 5 µM,[5],57.9%
"CCCCCCOc1ccc(OCCCCNc2ccnc3ccccc23)cc1 [CZ, N-{4-[4-(Hexyloxy)phenoxy]butyl}quinolin-4-amine]",viability at 0.4 µM,"[1]; Homo sapiens, compound 0.4 μM alone, Wst1, vehicle = 100, read-out: No Chemo: percent cell survival",96.7%
same,Doxorubicin 3.5 μM: percent cell survival,[1]; compound 0.4 μM + doxorubicin 3.5 μM,89.1%
same,Oxaliplatin 100 μM: percent cell survival,[1]; compound 0.4 μM + oxaliplatin 100 μM,91.1%
same,Paclitaxel 50 μM: percent cell survival,[1]; compound 0.4 μM + paclitaxel 50 μM,101.9%
same,Vincristine 100 nM: percent cell survival,[1]; compound 0.4 μM + vincristine 100 nM,90.3%
same,viability at 0.4 µM,[3]; 0.4 μM,96.7%
same,"Viable cell percent change, Chronic/48-hour, Mean",THP-1 cells,53.70%
same,EAE Score on Day 46,[4],2.29 ± 0.20
same,EAE Score on Day 14 (Before Treatment),[4],1.00 ± 0.00
same,viability at 1 µM,[5],50.6%
same,viability at 5 µM,[5],28.3%
"CCN(CC)CCCC(C)Nc1ccnc2cc(Cl)ccc12 (stereo not drawn) [Chloroquine, Chloroquine diphosphate, reference compound]","A.O. FL-3 fluorescence (MFI) percent change from DMSO no LPS, Mean ± SE","[7]; 50.0 μM C.Q., 1 ng/ml LPS",−72.28 ± 0.78%
same,"A.O. FL-3 fluorescence (MFI) percent change from DMSO no LPS, Mean ± SE","[7]; 100.0 μM C.Q., 1 ng/ml LPS",−88.28 ± 1.60%
same,"A.O. FL-3 fluorescence (MFI) percent change from DMSO no LPS, Mean ± SE","[7]; 100.0 μM C.Q., No LPS",−91.25 ± 0.60%
same,pIC50,[8]; Cryptococcus deneoformans,< 4.00
same,growth inhibition of Cryptococcus neoformans (maximum),[8]; chloroquine at a concentration of 100 micromolar,less than 50%
same,inhibition at 100 µM,"[8]; read-out: growth inhibition of Cryptococcus neoformans (maximum), chloroquine at a concentration of 100 micromolar",40%
same,"inactive compound (inhibition of yeast growth, in words)",S. cerevisiae,did not show any inhibition of yeast growth up to 50 uM
"CN(C(=O)c1c(O)c2ccccc2n(C)c1=O)c1ccccc1 [Linomide, reference compound]",EAE Score on Day 46,[4],2.29 ± 0.48
same,EAE Score on Day 14 (Before Treatment),[4],0.93 ± 0.19
